Literature values in PubChem BioAssay AID1259409 (Chemical Carcinogenesis Research Information System (CCRIS), 2018).

System: rodent chemically induced tumor inhibition, incidence and multiplicity
Assay: CCRIS tumor inhibitor studies
Details: Carcinogen: 4-(METHYLNITROSAMINO)-1-(3-PYRIDYL)-1-BUTANONE, 64091-91-4, Promoter: NONE USED; for tumour outcome (control, treated, inhibition, significance): Dose [Inhibitor]: 0

## S=C=NCCc1ccccc1
3 UMOL/G OF DIET FOR 112 WK BEGINNING 1 WK PRIOR TO CARCINOGEN TREATMENT (STUDY DURATION: 112 WK), Route [Inhibitor]: ORAL, Species: RAT, Strain/Sex: F344/MALE, Target Tissue: Type of Lesion: PANCREAS (EXOCRINE): MALIGNANT TUMOR, Dose [Carcinogen]: 2 PPM IN DRINKING WATER FOR 111 WK
  tumour outcome (control, treated, inhibition, significance): 4/52 (8%), 0/59 (0%), 100%, p=0.005
5 UMOL 1/D FOR 4 D ADMINISTERED PRIOR TO CARCINOGEN DOSE (STUDY DURATION: 116 D), Route [Inhibitor]: GAVAGE, Species: MOUSE, Strain/Sex: STRAIN-A, Target Tissue: Type of Lesion: LUNG: ADENOMA, Dose [Carcinogen]: 10 UMOL IN SALINE ADMINISTERED 2 HR POST LAST AGENT DOSE
  tumour outcome (control, treated, inhibition, significance): 100%, 93%, 7%, not calculated
5 UMOL 1/D FOR 4 D ADMINISTERED PRIOR TO CARCINOGEN TREATMENT (STUDY DURATION: 116 D), Route [Inhibitor]: GAVAGE, Species: MOUSE, Strain/Sex: STRAIN A, Target Tissue: Type of Lesion: LUNG: ADENOMA, Dose [Carcinogen]: 10 UMOL ONCE 2 HR AFTER FINAL DOSE OF INHIBITOR
  tumour outcome (control, treated, inhibition, significance): 100%, 93%, 7%, not significant
5 UMOL 1/D FOR 4 DAYS ADMINISTERED PRIOR TO CARCINOGEN TREATMENT (STUDY DURATION: 116 D), Route [Inhibitor]: GAVAGE, Species: MOUSE, Strain/Sex: STRAIN-A, Target Tissue: Type of Lesion: LUNG: ADENOMA, Dose [Carcinogen]: 10 UMOL ONCE 2 HR AFTER FINAL DOSE OF INHIBITOR
  tumour outcome (control, treated, inhibition, significance): 100%, 89%, 11%, not significant
5 UMOL/D ADMINISTERED TO MICE HETEROZYGOUS (P53+/-) FOR P53 ALLELES FOR 4 CONSECUTIVE DAYS PRIOR TO CARCINOGEN DOSE (, Route [Inhibitor]: GAVAGE, Species: MOUSE, Strain/Sex: (A/J X TSG-P53)F1/FEMALE, Target Tissue: Type of Lesion: LUNG: ADENOMA, Dose [Carcinogen]: 10 UMOL ONCE
  tumour outcome (control, treated, inhibition, significance): 100%, 40%, 60%, p<0.0001
5 UMOL/D ADMINISTERED TO MICE HOMOZYGOUS (P53+/+) FOR P53 ALLELES FOR 4 CONSECUTIVE DAYS PRIOR TO CARCINOGEN DOSE (ST, Route [Inhibitor]: GAVAGE, Species: MOUSE, Strain/Sex: (A/J X TSG-P53)F1/FEMALE, Target Tissue: Type of Lesion: LUNG: ADENOMA, Dose [Carcinogen]: 10 UMOL ONCE
  tumour outcome (control, treated, inhibition, significance): 100%, 36%, 64%, p<0.0001
5 UMOL/D FOR 4 CONSECUTIVE DAYS (STUDY DURATION: 17 WK), Route [Inhibitor]: GAVAGE, Species: MOUSE, Strain/Sex: STRAIN-A/FEMALE, Target Tissue: Type of Lesion: LUNG: ADENOMA, Dose [Carcinogen]: 10 UMOL ONCE 2 HR POST LAST AGENT DOSE
  tumour outcome (control, treated, inhibition, significance): 100%, 89%, 11%, not calculated
5 UMOL/D FOR 4 CONSECUTIVE DAYS PRIOR TO CARCINOGEN DOSE (STUDY DURATION: 18 WK), Route [Inhibitor]: GAVAGE, Species: MOUSE, Strain/Sex: STRAIN-A/FEMALE, Target Tissue: Type of Lesion: LUNG: ADENOMA, Dose [Carcinogen]: 10 UMOL ONCE
  tumour outcome (control, treated, inhibition, significance): 100%, 100%, 0%, not significant
25 UMOL 1/D FOR 4 D ADMINISTERED PRIOR TO CARCINOGEN TREATMENT (STUDY DURATION: 116 D), Route [Inhibitor]: GAVAGE, Species: MOUSE, Strain/Sex: STRAIN-A, Target Tissue: Type of Lesion: LUNG: ADENOMA, Dose [Carcinogen]: 10 UMOL ONCE 2 HR AFTER FINAL DOSE OF INHIBITOR
  tumour outcome (control, treated, inhibition, significance): 100%, 30%, 70%, p<0.01
25 UMOL/D FOR 4 CONSECUTIVE DAYS (STUDY DURATION: 17 WK), Route [Inhibitor]: GAVAGE, Species: MOUSE, Strain/Sex: STRAIN-A/FEMALE, Target Tissue: Type of Lesion: LUNG: ADENOMA, Dose [Carcinogen]: 10 UMOL ONCE 2 HR POST LAST AGENT DOSE
  tumour outcome (control, treated, inhibition, significance): 100%, 30%, 70%, p<0.01
652 PPM IN DIET FOR 22 WK BEGINNING 1 WK PRIOR TO CARCINOGEN TREATMENT (STUDY DURATION: 98 WK), Route [Inhibitor]: ORAL, Species: RAT, Strain/Sex: F344/MALE, Target Tissue: Type of Lesion: LUNG: TUMOR, Dose [Carcinogen]: 1.5 MG/KG BW 3/WK FOR 20 WK
  tumour outcome (control, treated, inhibition, significance): 22/33 (67%), 6/36 (17%), 75%, p<0.001
652 PPM IN DIET FOR 22 WK BEGINNING 1 WK PRIOR TO CARCINOGEN TREATMENT (STUDY DURATION: 98 WK), Route [Inhibitor]: ORAL, Species: RAT, Strain/Sex: F344/MALE, Target Tissue: Type of Lesion: NASAL CAVITY: TUMOR, Dose [Carcinogen]: 1.5 MG/KG BW 3/WK FOR 20 WK
  tumour outcome (control, treated, inhibition, significance): 28/36 (78%), 17/36 (47%), 40%, not significant
1304 PPM IN DIET FOR 22 WK BEGINNING 1 WK PRIOR TO CARCINOGEN DOSE (STUDY DURATION: 98 WK), Route [Inhibitor]: ORAL, Species: RAT, Strain/Sex: F344/MALE, Target Tissue: Type of Lesion: NASAL CAVITY: TUMOR, Dose [Carcinogen]: 1.5 MG/KG BW 3/WK FOR 20 WK
  tumour outcome (control, treated, inhibition, significance): 28/36 (78%), 21/36 (58%), 26%, not significant
1304 PPM IN DIET FOR 22 WK BEGINNING 1 WK PRIOR TO CARCINOGEN TREATMENT (STUDY DURATION: 98 WK), Route [Inhibitor]: ORAL, Species: RAT, Strain/Sex: F344/MALE, Target Tissue: Type of Lesion: LUNG: TUMOR, Dose [Carcinogen]: 1.5 MG/KG BW 3/WK FOR 20 WK
  tumour outcome (control, treated, inhibition, significance): 22/33 (67%), 3/36 (8%), 88%, p<0.0001
Dose [Inhibitor]: 3 UMOL/G DIET BEGINNING 1 WK PRIOR TO FIRST CARCINOGEN DOSE (STUDY DURATION: 104 WK), Route [Inhibitor]: ORAL, Species: RAT, Strain/Sex: F344/MALE, Target Tissue: Type of Lesion: ADRENAL GLAND: ADENOMA, Dose [Carcinogen]: 1.76 MG/KG 3/WK FOR 20 WK
  outcome: 0/40 (0%), 2/40 (5%), -5%, not calculated
